# Results reported in patent US20150232420A1, “TRANSGLUTAMINASE TG2 INHIBITORS, PHARMACEUTICAL COMPOSITIONS, AND METHODS OF USE THEREOF” (priority 2012, published 2015).
# Read-outs that look alike come from different tables or passages of the source.
# Legend:
# human TG2 = target: T1, human TG2 (Homo sapiens, UniProt P21980); experiment: fluorescent screening assay for human TG2; assay type: biochemical
# T1 sequence (P21980 1-687): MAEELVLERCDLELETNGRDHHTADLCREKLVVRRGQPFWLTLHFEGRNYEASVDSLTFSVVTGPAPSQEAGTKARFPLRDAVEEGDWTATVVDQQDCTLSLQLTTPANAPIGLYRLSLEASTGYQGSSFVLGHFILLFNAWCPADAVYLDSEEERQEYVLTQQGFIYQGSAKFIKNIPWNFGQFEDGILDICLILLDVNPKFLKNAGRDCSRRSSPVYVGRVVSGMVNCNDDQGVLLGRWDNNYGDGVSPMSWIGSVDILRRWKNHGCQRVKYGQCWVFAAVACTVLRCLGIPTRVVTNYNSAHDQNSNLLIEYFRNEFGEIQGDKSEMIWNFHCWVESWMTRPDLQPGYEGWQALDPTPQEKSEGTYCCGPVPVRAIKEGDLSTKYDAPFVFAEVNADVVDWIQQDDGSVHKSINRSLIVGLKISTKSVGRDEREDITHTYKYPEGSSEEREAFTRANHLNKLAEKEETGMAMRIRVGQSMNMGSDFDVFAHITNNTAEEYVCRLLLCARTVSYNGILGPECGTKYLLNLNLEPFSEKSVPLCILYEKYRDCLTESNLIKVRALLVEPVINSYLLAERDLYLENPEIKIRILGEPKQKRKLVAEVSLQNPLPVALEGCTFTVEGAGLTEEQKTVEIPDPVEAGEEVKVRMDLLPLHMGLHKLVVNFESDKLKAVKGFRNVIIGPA
# Protocol: The fluorescent screening assay for human TG2 was performed as described herein: Assay conditions were 20 nM TG2, 8 μM N,N-dimethylated Casein (NMC) and 16 μM K×D (used for all transglutaminase assays) in 25 mM Hepes, pH 7.4, 250 mM NaCl, 2 mM MgCl2, 0.5 mM CaCl2, 0.2 mM DTT, 0.05% Pluronic F-127 at 37° C. A time point was taken with a microplate reader (Safire or Ultra, Tecan; ex: 350 nm, em: 535 nm) every 3 minutes for up to 2 hours and the initial linear reaction progress was used to determine the reaction velocity as a measure for enzyme activity. Assay conditions were identical for human TG6 and similar for human TG1 and mouse TG2 apart from enzyme concentration (mTG2 at 5 nM; TG1 at 10 nM) and CaCl2 concentration (0.2 mM for mTG2; 0.05 mM for TG1). Factor XIIIa was activated using 0.1 μg/μl thrombin (Sigma) in 35 mM Tris pH 8.0 for 20 min at 30° C. and the transamidation reaction was performed with 20 nM Factor XIIIa in 50 mM Tris pH 8.0, 1.25 mM CaCl2, 0.05% Pluronic, 0.2 mM DTT. TG3 was activated with 0.02 μg/μl thrombin under the same conditions as Factor XIIIa and assay conditions were 10 nM TG3 in 50 mM Hepes, pH 8, 20 mM CaCl2, 0.2 mM DTT, 0.05% Pluronic F-127.
# kinetic solubility assay = assay type: physicochemical
# [1] = Liver microsomal stability (human); assay type: in vitro ADME
# Protocol: Incubations of test compound (1 μM initial concentration, n=2) were carried out with pooled hepatic liver microsomes (0.25 mg protein/mL in 0.1 M phosphate buffer pH7.4). NADPH (1 mM) was added to initiate the reactions. The incubations were performed at 37° C. Samples (100 μL) were taken from the incubation at 0, 5, 10, 20 and 40 min and added to 100 μL of acetonitrile containing carbamazepine as analytical internal standard, to terminate the reaction. Samples were centrifuged and the supernatant fractions analyzed using LC-MS/MS.
# (§1) For all incubations, the instrument response (i.e. chromatographic peak area or peak height, normalized by internal standard), at each time-point were referenced to the zero time-point samples (as 100%) in order to determine the percentage of compound remaining at that time-point. Plots of the natural logarithm (Ln) of the percent of parent remaining for each compound, versus time, were used to determine the half-life in the incubation of interest.
# (§2) Half-life values (t1/2) were calculated from the relationship: t1/2 (min)=−0.693/λ where λ was the slope of the Ln concentration versus time curve.
# For incubations in hepatic liver microsomes, the in vitro intrinsic clearance, Clint (μL/min/mg microsomal protein), was calculated using the following formula:
# Clint=(0.693/t1/2 microsomal)*(ml incubation/mg microsomal protein)*(mg microsomal protein/g liver)*(g liver/kg body weight)
# Plasma stability (mouse) = assay type: in vitro ADME; settings: pooled plasma
# Protocol: (§3) Incubations of test compound (1 μM initial concentration, n=2) were carried out with pooled plasma or BSA (45 mg/mL in 0.1 M phosphate buffered saline pH 7.4). The incubations were performed at 37° C. Samples (50 μL) were obtained from the incubation at 0, 10, 30, 120, 240, 360 and 1440 min, and added to 150 μL of acetonitrile containing carbamazepine as analytical internal standard to terminate the reaction. Samples were centrifuged and the supernatant fractions analyzed using LC-MS/MS.
# as §1, §2
# Plasma stability (human) = assay type: in vitro ADME; settings: pooled plasma
# Protocol: as §3, §1, §2
# [2] = Permeability in wild type MDCK monolayers; assay type: in vitro ADME; settings: dog; wild type MDCK, apical to basolateral, 10 μM, pH 7.4; read-out: MDCK-WT Papp A-B
# Protocol: (§4) The MDR1-MDCKII and wild type MDCKII cell lines were cultured in accordance with the guidelines provided by Solvo Biotechnology. Both wild-type MDCK and MDR1-MDCK cells were seeded at a cell density of 2.3×10^5 cells/well into 24-well Transwell plates and cultured for three days to form monolayers. Test compound was loaded into the donor compartments of the Transwell plate (24-well) bearing MDR1-MDCK or wild type MDCK monolayers. Test compound was added to either the apical or basolateral chambers of the Transwell plate assembly at a concentration of 10 μM in Hanks' Balanced Salt Solution containing 25 mM HEPES (pH 7.4). Lucifer Yellow was added to the apical buffer in all wells and its permeation monitored to assess integrity of the cell layer. As Lucifer Yellow (LY) cannot freely permeate lipophilic barriers, a high degree of LY transport indicates poor integrity of the cell layer and wells with LY permeability >100 nm/s are rejected.
# [3] = system: wild type MDCKII cell line; experiment: Permeability in wild type MDCK monolayers; assay type: in vitro ADME; settings: MDCK study; in words
# Protocol: as §4
# P-glycoprotein (P-gp) = target: T2, P-glycoprotein (P-gp) (Homo sapiens, UniProt P08183); experiment: Effective efflux ratio in MDCK-MDR1; assay type: in vitro ADME
# T2 construct: host or cells: MDCKII (MDR1-MDCKII)
# Protocol: as §4
# P-glycoprotein (P-gp) is one of the main efflux transporters in brain; the potential for compound 1 and compound 2 to be effluxed by P-gp was assessed in an MDCK-MDR1 transfected cell line.
# [4] = Table 7, 20 nM TG2, 37° C., read-out: IC50
# T2 sequence (P08183 whole entry): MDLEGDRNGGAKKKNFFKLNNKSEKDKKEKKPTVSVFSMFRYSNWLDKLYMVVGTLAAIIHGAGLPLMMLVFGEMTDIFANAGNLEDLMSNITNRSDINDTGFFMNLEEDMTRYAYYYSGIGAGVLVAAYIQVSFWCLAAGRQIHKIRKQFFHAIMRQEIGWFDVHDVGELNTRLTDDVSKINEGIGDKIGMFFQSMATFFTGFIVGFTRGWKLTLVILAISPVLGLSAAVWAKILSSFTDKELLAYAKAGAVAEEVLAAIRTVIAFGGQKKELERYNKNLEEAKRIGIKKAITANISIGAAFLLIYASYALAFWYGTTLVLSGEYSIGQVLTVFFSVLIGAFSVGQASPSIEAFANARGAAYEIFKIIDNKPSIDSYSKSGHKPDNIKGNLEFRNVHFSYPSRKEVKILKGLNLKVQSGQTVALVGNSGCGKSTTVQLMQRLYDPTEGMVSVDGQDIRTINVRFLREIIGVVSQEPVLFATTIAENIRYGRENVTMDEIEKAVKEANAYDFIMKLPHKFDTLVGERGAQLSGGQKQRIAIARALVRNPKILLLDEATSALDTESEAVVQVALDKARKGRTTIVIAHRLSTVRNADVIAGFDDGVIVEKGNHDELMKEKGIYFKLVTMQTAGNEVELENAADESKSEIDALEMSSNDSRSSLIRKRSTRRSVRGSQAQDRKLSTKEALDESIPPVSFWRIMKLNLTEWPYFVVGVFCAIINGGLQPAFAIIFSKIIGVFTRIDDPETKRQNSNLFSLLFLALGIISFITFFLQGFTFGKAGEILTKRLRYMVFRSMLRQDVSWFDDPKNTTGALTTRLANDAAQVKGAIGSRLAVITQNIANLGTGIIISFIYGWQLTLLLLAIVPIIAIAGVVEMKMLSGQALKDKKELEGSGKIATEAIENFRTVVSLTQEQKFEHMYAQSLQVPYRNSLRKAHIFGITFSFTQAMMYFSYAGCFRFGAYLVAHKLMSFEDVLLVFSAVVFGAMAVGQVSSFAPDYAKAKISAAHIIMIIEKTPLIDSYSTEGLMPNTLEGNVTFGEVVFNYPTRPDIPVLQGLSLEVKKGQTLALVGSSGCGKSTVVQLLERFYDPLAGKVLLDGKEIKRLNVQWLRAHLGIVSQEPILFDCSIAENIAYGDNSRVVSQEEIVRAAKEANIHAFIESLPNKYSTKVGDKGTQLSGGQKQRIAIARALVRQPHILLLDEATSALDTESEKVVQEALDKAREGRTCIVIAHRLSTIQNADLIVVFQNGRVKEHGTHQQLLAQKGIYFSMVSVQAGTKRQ
IC50 (human TG2; [4]),Structure (SMILES),also measured
< 100 nM,C=CC(=O)NCCCC[C@H](NC(=O)OCc1ccccc1)C(=O)N1CCN(c2cccc(C)n2)CC1 [benzyl N-[(2S)-1-[4-(6-methylpyridin-2-yl)piperazin-1-yl]-1-oxo-6-(prop-2-enamido)hexan-2-yl]carbamate],
< 100 nM,C=CC(=O)NCCCC[C@H](NC(=O)OCc1ccccc1)C(=O)N1CCN(C(=O)C23CC4CC(CC(C4)C2)C3)CC1 [benzyl N-[(2S)-1-[4-(adamantane-1-carbonyl)piperazin-1-yl]-1-oxo-6-(prop-2-enamido)hexan-2-yl]carbamate],
100 to 1000 nM,C=CC(=O)NCCCC[C@H](NC(=O)OCc1ccccc1)C(=O)N1CCN(C(=O)N2CCOCC2)CC1 [benzyl N-[(2S)-1-[4-(morpholine-4-carbonyl)piperazin-1-yl]-1-oxo-6-(prop-2-enamido)hexan-2-yl]carbamate],
100 to 1000 nM,C=CC(=O)NCCCC[C@H](NC(=O)OCc1ccccc1)C(=O)N1CCN(c2ccc3ccccc3c2)CC1 [benzyl N-[(2S)-1-[4-(naphthalen-2-yl)piperazin-1-yl]-1-oxo-6-(prop-2-enamido)hexan-2-yl]carbamate],
100 to 1000 nM,C=CC(=O)NCCCC[C@H](NC(=O)OCc1ccccc1)C(=O)N1CCN(C(=O)C2CCOCC2)CC1 [benzyl N-[(2S)-1-[4-(oxane-4-carbonyl)piperazin-1-yl]-1-oxo-6-(prop-2-enamido)hexan-2-yl]carbamate],
1000 to 100000 nM,C=CC(=O)NCCCC[C@@H](CO)NC(=O)OCc1ccccc1 [benzyl N-[(2S)-1-hydroxy-6-(prop-2-enamido)hexan-2-yl]carbamate],
< 100 nM,C=CC(=O)NCCCC[C@H](NC(=O)OCc1ccccc1)C(=O)N1CCC(c2ccccc2)CC1 [benzyl N-[(2S)-1-oxo-1-(4-phenylpiperidin-1-yl)-6-(prop-2-enamido)hexan-2-yl]carbamate],
1000 to 100000 nM,C=CC(=O)NCCCC[C@H](NC(=O)OCc1ccccc1)C(=O)N1CCCCC1 [benzyl N-[(2S)-1-oxo-1-(piperidin-1-yl)-6-(prop-2-enamido)hexan-2-yl]carbamate],
100 to 1000 nM,C=CC(=O)NCCCC[C@H](NC(=O)OCc1ccccc1)C(=O)N1CCCC1 [benzyl N-[(2S)-1-oxo-6-(prop-2-enamido)-1-(pyrrolidin-1-yl)hexan-2-yl]carbamate],
100 to 1000 nM,"C=CC(=O)NCCCC[C@H](NC(=O)OCc1ccccc1)C(=O)N1CCN(c2nccs2)CC1 [benzyl N-[(2S)-1-oxo-6-(prop-2-enamido)-1-[4-(1,3-thiazol-2-yl)piperazin-1-yl]hexan-2-yl]carbamate]",
100 to 1000 nM,C=CC(=O)NCCCC[C@H](NC(=O)OCc1ccccc1)C(=O)N1CCN(c2ccccn2)CC1 [benzyl N-[(2S)-1-oxo-6-(prop-2-enamido)-1-[4-(pyridin-2-yl)piperazin-1-yl]hexan-2-yl]carbamate],
100 to 1000 nM,C=CC(=O)NCCCC[C@H](NC(=O)OCc1ccccc1)C(=O)N1CCN(c2ncccc2C(F)(F)F)CC1 [benzyl N-[(2S)-1-oxo-6-(prop-2-enamido)-1-{4-[3-(trifluoromethyl)pyridin-2-yl]piperazin-1-yl}hexan-2-yl]carbamate],
100 to 1000 nM,C=CC(=O)NCCCC[C@H](NC(=O)OCc1ccccc1)C(=O)N1CCN(c2ccc(C(F)(F)F)cn2)CC1 [benzyl N-[(2S)-1-oxo-6-(prop-2-enamido)-1-{4-[5-(trifluoromethyl)pyridin-2-yl]piperazin-1-yl}hexan-2-yl]carbamate],
< 100 nM,"C=CC(=O)NCCCC[C@H](NC(=O)OCc1ccccc1)C(=O)N1CCN(c2ccccc2Cl)CC1 [compound 1, benzyl N-[(2S)-1-[4-(2-chlorophenyl)piperazin-1-yl]-1-oxo-6-(prop-2-enamido)hexan-2-yl]carbamate]","IC50 (human TG2; Table 8, read-out: TG2 IC50): 14 nM; solubility in a kinetic solubility assay (kinetic solubility assay; in words): good solubility; Aq. Sol. (kinetic solubility assay; kinetic solubility): 0.87 mg/mL; metabolic stability in liver microsomal stability testing ([1]; human, in words): poor; microsomal CLint at 1 μM ([1]; pooled liver microsomes, pH 7.4, human liver microsomes, 1 μM, 0.25 mg protein/mL, NADPH, read-out: hLM Clint): > 1390 µL/min/mg; half-life at 1 μM (Plasma stability (mouse); mouse plasma, 1 μM, 37° C., read-out: Mouse Plasma T1/2): > 24 h; half-life at 1 μM (Plasma stability (mouse); read-out: half-life in mouse plasma): > 24 h; half-life at 1 μM (Plasma stability (human); human plasma, 1 μM, 37° C., read-out: Human Plasma T1/2): > 24 h; half-life at 1 μM (Plasma stability (human); read-out: half-life in human plasma): > 24 h; Papp A→B at 10 μM [2]: 14.2 ×10⁻⁶ cm/s; permeability [3]: good permeability; active efflux via P-gp (P-glycoprotein (P-gp); MDCK-MDR1 transfected cell line, in words): high active efflux; MDCK-MDR1 EER (P-glycoprotein (P-gp); effective efflux ratio, 10 μM): 118"
100 to 1000 nM,C=CC(=O)NCCCC[C@H](NC(=O)OCc1ccccc1)C(=O)N1CCN(C(=O)OC(C)(C)C)CC1 [tert-butyl 4-[(2S)-2-{[(benzyloxy)carbonyl]amino}-6-(prop-2-enamido)hexanoyl]piperazine-1-carboxylate],
100 to 1000 nM,C=CC(=O)NCCCC[C@H](NC(=O)OC(C)(C)C)C(=O)N1CCN(c2cccc(C)n2)CC1 [tert-butyl N-[(2S)-1-[4-(6-methylpyridin-2-yl)piperazin-1-yl]-1-oxo-6-(prop-2-enamido)hexan-2-yl]carbamate],
